This passage reports MIC results from publication PMC5671890 (Journal of molecular medicine (Berlin, Germany), 2017).

In brackets after ≈: the same amount, converted by molar mass. Counter-ions that a name gives are not always drawn. Positions of bridges follow the written chain, without caps; N, C: chain ends. Non-standard residues stand in square brackets, D forms with d. Residues, ends and D or L forms follow the SMILES beside them. *: point of attachment. X1 = CC[C@H](C)CCCCC(=O)*; Dab = NCC[C@H](N)C(=O)O

For orientation: MIC means the lowest concentration found to suppress growth. Lower therefore signals a more susceptible organism.

Common to all, as to assay type: cell-based
Holding throughout (conditions): cation-adjusted Mueller Hinton broth, serial 2-fold dilutions, repeated 3 times

Assay [1] concerns Pseudomonas aeruginosa PAO1 vacJ− mutant.
For assay [2], the system named is Pseudomonas aeruginosa PAO1 Wt.
Assay [3] deals with Pseudomonas aeruginosa PAO1 vacJ−:vacJ complemented strain.

With `CC[C@H](C)CCCCC(=O)N[C@@H](CCN)C(=O)N[C@H](C(=O)N[C@@H](CCN)C(=O)N[C@H]1CCNC(=O)[C@H]([C@@H](C)O)NC(=O)[C@H](CCN)NC(=O)[C@H](CCN)NC(=O)[C@H](CC(C)C)NC(=O)[C@@H](CC(C)C)NC(=O)[C@H](CCN)NC1=O)[C@@H](C)O` [Colistin, colistin sulfate] (X1-[Dab]T[Dab][Dab][Dab][dL]L[Dab][Dab]T; lactam 4-C (inferred); N-terminus assumed), the MIC in assay [1] was 0.5 µg/mL; in assay [2], 1 µg/mL; in assay [3], 1 µg/mL.
For the compound `CC[C@H](C)CCCCC(=O)N[C@@H](CCN)C(=O)N[C@H](C(=O)N[C@@H](CCN)C(=O)N[C@H]1CCNC(=O)[C@H]([C@@H](C)O)NC(=O)[C@H](CCN)NC(=O)[C@H](CCN)NC(=O)[C@H](CC(C)C)NC(=O)[C@@H](Cc2ccccc2)NC(=O)[C@H](CCN)NC1=O)[C@@H](C)O` [Polymyxin B] (X1-[Dab]T[Dab][Dab][Dab][dF]L[Dab][Dab]T; lactam 4-C (inferred); N-terminus assumed), the MIC is on record as 0.25 µg/mL (≈ 0.208 µM) in assay [1], 0.5 µg/mL (≈ 0.415 µM) in assay [2] and 0.5 µg/mL (≈ 0.415 µM) in assay [3].
